This passage reports cytotoxicity results from ChEMBL document CHEMBL3507680, “University of Dundee, Gates Library screen for HepG2 cell viability”.

This data set in a line: Human HepG2 cell viability assay in 384 well format. The class given is toxicity, cell-based. Details: dose 125 nL, time 70.5 hour; cytotoxicity at 70.5 h: concentration not given beside the values. As to conditions: HepG2 cells, read-out: Inhibition.

On to `Cc1noc(-c2ccc(N3CCCC(C(=O)O)C3)nc2)n1` (stereo not given), for which the cytotoxicity at 70.5 h was -3.67%.

As to `O=C(NCCCn1cccn1)C1(c2ccccc2)CCOCC1`, the cytotoxicity at 70.5 h was -10.8%. Consider `Cc1ccc(C2(C(=O)NCCCn3cccn3)CCOCC2)cc1`, for which the cytotoxicity at 70.5 h came to 14.4%. In the case of `O=C(O)c1cnc(N2CCC(O)CC2)nc1COc1ccc(F)cc1`, the cytotoxicity at 70.5 h was -21.6%. For `O=C(O)c1cnc(N2CCC(O)CC2)nc1COc1cccc(F)c1`, the cytotoxicity at 70.5 h is -12.9%. Turning to `COc1c(Br)c(C(=O)NC2CCCC2)nn1C`, the cytotoxicity at 70.5 h is -9.06%. Turning to `COc1c(Br)c(C(=O)NC2CC2)nn1C`, the cytotoxicity at 70.5 h was determined as 0.124%.

For the compound `Cn1ncc(C(=O)N2CCOCC2)c1Cl`, the cytotoxicity at 70.5 h is -13.1%. To `CC1CCCCN1C(=O)COCc1nc(-c2ccncc2)no1` (stereo not given) belongs 4.94%; to `CN1CCN(C(=O)COCc2nc(-c3ccncc3)no2)CC1`, 17.1%; to `O=C(COCc1nc(-c2ccncc2)no1)N1CCCCC1`, -6.97%. On to `CCn1nc(C)c2nnn(CC(=O)Nc3ccc(C)cc3)c(=O)c21`, for which the cytotoxicity at 70.5 h is -4.64%. As to `CCn1nc(C)c2nnn(CC(=O)Nc3ccc(C)c(C)c3)c(=O)c21`, the cytotoxicity at 70.5 h is -7.31%. As for `O=C(O)c1cnc(N2CCCC2)nc1COc1ccc(F)cc1`, the cytotoxicity at 70.5 h was -21.1%. To `CCCNc1cc(C(=O)N2CCOCC2)nc(C)n1` belongs -4.28%; to `Cc1nc(C(=O)N2CCOCC2)cc(N2CCC(C(N)=O)CC2)n1`, -0.347%. In the case of `COc1cccc(OCCc2nnc(NC(C)=O)s2)c1`, the cytotoxicity at 70.5 h was -6.24%. With `COCc1nc(N(C)C)ncc1C(=O)NC(C)c1ccccc1` (stereo not given) the figure was -5.51%; with `CCc1c(O)nc2nc(N3CCOCC3)nn2c1C`, -11%; with `CCc1c(O)nc2nc(N3CCCC3)nn2c1C`, -5.54%. Consider `O=C(Nc1cc(-c2ccncc2)no1)C1CC1`, for which the cytotoxicity at 70.5 h is -10.1%.

In the case of `O=C(Nc1cc(-c2ccncc2)no1)C1CCC1`, the cytotoxicity at 70.5 h is -10.3%.

On to `COc1c(C(=O)NCc2cnn(C)c2C)nnn1Cc1ccccc1`, for which the cytotoxicity at 70.5 h worked out at 23%. Consider `COc1c(C(=O)NCc2cccnc2)nnn1Cc1ccccc1`, for which the cytotoxicity at 70.5 h was -7.04%. With `Cc1cc(N2CCCN(c3ccnc(C)c3)CC2)ccn1`, the cytotoxicity at 70.5 h is -7.78%. To `Cc1cccc(NC(=O)c2ccc(OCc3nnnn3C)cc2)n1` belongs 14.4%; to `COc1cc(-c2n[nH]c(CN)n2)cc(OC)c1OC`, 23.8%; to `Oc1ccccc1-c1n[nH]c(C2CCCO2)n1` (stereo not given), 28.5%.

As to `COCCCNC(=O)c1cc(C(C)C)nc(N2CCCCCC2)n1`, the cytotoxicity at 70.5 h was -8.22%.

As to `COc1c(C(=O)NCc2cccnc2)nnn1Cc1ccc(C)cc1`, the cytotoxicity at 70.5 h was -15.1%. To `CC(=O)Nc1ncc(S(=O)(=O)Nc2ccc(F)cc2)s1` belongs 30.4%; to `CCn1c(Nc2ccccc2OC)nc2c(C)nn(C)c2c1=O`, 14%; to `COc1cc2cc(C(=O)O)n(C)c2cc1OC`, -14.4%. With `CCn1cc(CN(C)S(=O)(=O)c2ccc(NC(C)=O)cc2)cn1` the figure was 26.5%; with `CCN(CC)CCNC(=O)c1nn(CC)cc1Cl`, 18.6%. As for `CCn1cc(N2Cc3nc(N4CCOCC4)ncc3C2=O)cn1`, the cytotoxicity at 70.5 h is 2.67%. With `CCn1cc(N2Cc3nc(N)ncc3C2=O)cn1` the figure was 29.8%.

In the case of `CCn1nc(C)c2nnn(CC(=O)Nc3c(C)cccc3C)c(=O)c21`, the cytotoxicity at 70.5 h is 27.9%. For the compound `CSCc1cccc(S(=O)(=O)N2CCC(C)CC2)c1`, the cytotoxicity at 70.5 h is 8.82%.

In the case of `Cc1nn(C)c2c(NCCCn3cccn3)ncnc12`, the cytotoxicity at 70.5 h was -6.36%. Take `Cc1nn(C)c2cnn(C(C)C(=O)NCc3cccnc3)c12` (stereo not given): the cytotoxicity at 70.5 h is -5.87%. In the case of `Cc1cccnc1NC(=O)C(C)Cn1nc(C(F)(F)F)cc1C` (stereo not given), the cytotoxicity at 70.5 h is -4.08%. With `CCc1noc(C2CCCCN2C(=O)c2nnc3ccccc3n2)n1` (stereo not given), the cytotoxicity at 70.5 h stood at 17.3%. To `CCc1noc(C2CCCCN2C(=O)c2ccn(C3CCCC3)n2)n1` (stereo not given) belongs 31%; to `CCn1nc(C)c2ncnc(NCC(=O)N3CCOCC3)c21`, -11.2%; to `CCn1nc(C)c2ncnc(NCCCN3CCOCC3)c21`, 6.44%. With `Cc1nn(C)c2c(N3CCN(C(=O)NC4CCCCC4)CC3)ncnc12` the figure was 4.87%; with `Cc1nc(N2CCN(C(=O)C3CC3)CC2)c2c(n1)c(C)nn2C`, 0.516%; with `CCC(=O)Nc1nnc(CCOc2cccc(OC)c2)s1`, 6.47%. To `CCOCCCNC(=O)c1cc(C(C)C)nc(N2CCCCCC2)n1` belongs 26.5%. Turning to `CCN(CC)CCNC(=O)c1cc(C(C)C)nc(N2CCCC2)n1`, the cytotoxicity at 70.5 h came to 56.7%.

For the compound `CCOCCCNC(=O)c1cc(C)nc(N2CCCC2)n1`, the cytotoxicity at 70.5 h is 21.7%. `Cc1ccc(CNC(=O)Cn2ncc3c2c(C)nn3C)cc1`: the cytotoxicity at 70.5 h was -0.794%.

In the case of `Cc1nn(C)c2cnn(CC(=O)NCCc3ccccc3)c12`, the cytotoxicity at 70.5 h was -6.1%. To `O=C1CC(c2ccc(F)c(F)c2)c2snc(C(=O)O)c2N1` (stereo not given) belongs 8.54%. Turning to `Cc1ccc2cnn(CCC(=O)NCc3c(C)nn(C)c3C)c2c1`, the cytotoxicity at 70.5 h was -6.87%. Turning to `CCc1noc(C2CCN(C(=O)CCn3nc(C)cc3C)CC2)n1`, the cytotoxicity at 70.5 h was -12.9%. Consider `CC1CCN(C(=O)c2ccn(COc3ccc(F)cc3)n2)CC1`, for which the cytotoxicity at 70.5 h was -6.36%. As for `CCCn1ccc(C(=O)N2CCC(C)CC2)n1`, the cytotoxicity at 70.5 h is -11.6%.

Take `Cc1nc(NCCc2ccc(Cl)cc2)cc(C(=O)N2CCCCC2)n1`: the cytotoxicity at 70.5 h amounted to 13.8%.

Take `Cc1nc(NCc2ccc(C)o2)cc(C(=O)N2CCOCC2)n1`: the cytotoxicity at 70.5 h was -9.84%.

`O=C(COCc1nc(-c2ccncc2)no1)N1CCCC1`: the cytotoxicity at 70.5 h was -4.88%.

As for `O=C(COCc1nc(-c2ccncc2)no1)NC1CCCCC1`, the cytotoxicity at 70.5 h is -2.53%. As for `COc1ccc(OC)c(C(C)Nc2nc3c(C)nn(C)c3c(=O)n2C)c1` (stereo not given), the cytotoxicity at 70.5 h is 12.4%.

As for `CCCNC(=O)C(C)n1cc(Br)cn1` (stereo not given), the cytotoxicity at 70.5 h is -11.8%.

Consider `COCCNC(=O)C(C)n1cc(Br)cn1` (stereo not given), for which the cytotoxicity at 70.5 h was -15.1%. For `CCn1nc(C)c2nc(C(C)C)nc(N3CCCCC3)c21`, the cytotoxicity at 70.5 h is -11.3%. `CSCc1cccc(S(=O)(=O)NCCCn2ccnc2)c1`: the cytotoxicity at 70.5 h is -5.18%. For the compound `CCN1CCN(S(=O)(=O)c2cc(Cl)c(Cl)cc2C)CC1`, the cytotoxicity at 70.5 h is -2.4%. As to `Cc1nccn1CC(=O)N1CC(Cc2nccc3ccn(C)c23)C1`, the cytotoxicity at 70.5 h is -9.67%. Regarding `CCn1cc(CN2C[C@@H]3CCCN3C[C@H]2CCSC)cn1`, the cytotoxicity at 70.5 h is -7.68%. Regarding `Cc1cc(CCC(N)=O)cc(C2CCCN2Cc2ccnn2C)n1` (stereo not given), the cytotoxicity at 70.5 h was -6.78%. With `Cc1nc(C2CN(C)CCO2)cc(N2CCC(C(N)=O)CC2)n1` (stereo not given) the figure was -10.6%; with `Cc1nc(Nc2ccccn2)cc(C2CCCN2C2CCOCC2)n1` (stereo not given), -10.7%; with `Cc1nc(Nc2cnccn2)cc(C2CCN(CCO)C2)n1` (stereo not given), -9.95%.
